Measurements reported in US20220105096A1, “INHIBITORS OF HUMAN IMMUNODEFICIENCY VIRUS REPLICATION” (ViiV HEALTHCARE UK (NO.5) LIMITED, priority 2019, published 2022).

Legend:
[1] = Pharmacokinetic parameters in vivo, dog; parameters: species or system Beagle Dogs
Description: PK was investigated in male CD1 mice, Wistar Han Rats, Cynomolgus monkeys, and Beagle Dogs. Two groups of animals (N=3 per group) received test compound either as an intravenous (IV) dose (1 mg/kg) or by oral gavage (5 mg/kg solution and suspension). Drug was formulated in 90% PEG 400, 10% ethanol for IV administration and in 90% PEG400, 5% ethanol for PO administration. Blood samples were collected at 0.167, 0.25, 0.5, 0.75, 1, 2, 3, 5, 7, 24, 48, 72 and 96 h post dose for IV; 0.25, 0.5, 0.75, 1, 2, 3, 5, 7, 24, 48, 72 and 96 h post dose for oral. Blood samples were collected into K3EDTA tubes and centrifuged at 1500 to 2000×g to obtain plasma. Plasma samples were stored at −20° C. until analysis by LC-MS/MS. All […] samples were injected on an Exion LC 4500 Triple Quad™ LC-MS/MS system. The analytical column used was a Phenomenex C18 (C18, 4.6 mm×50 mm, 5 μm) maintained at room temperature. Mobile Phase A consisted of 0.1% (v/v) formic acid in MilliQ water. Mobile Phase B consisted of 100% methanol. The flow rate was 1 mL/min. […] All LC-MS/MS analysis parameters are captured electronically in the raw data files. The PK parameters were obtained by non-compartmental analysis of plasma concentration vs time data (Phoenix WinNonlin v8). The peak concentration (Cmax) and time for Cmax (Tmax) were recorded directly from experimental observations. The area under the curve from time zero to the last sampling time [AUC0-T] and the area under the curve from time zero to infinity [AUCINF] were calculated using a combination of linear and log trapezoidal summations. The total plasma clearance (CLTp), steady-state volume of distribution (Vss), apparent elimination half-life (T-HALF), and mean residence time (MRT) were estimated after IV administration. Estimations of AUC and T-HALF were made using a minimum of three timepoints with quantifiable concentrations. The absolute oral bioavailability (F) was estimated as the ratio of dose-normalized AUC values following oral and IV doses.

[2] = test system: primary human hepatocytes; test: Cytotoxicity assessed in parallel in the CYP induction assay; type: cell-based; details: concentrations tested up to 30 μM, 48 hours
Description: Compounds were tested in a CYP induction assay using inducible cryopreserved human primary hepatocytes from three donors to determine the potential to cause induction (as measured by an increase in mRNA transcription) of CYP2B6. Test compounds (0.12 to 30 μM final concentration) were incubated for 48 hours with primary human hepatocytes naturally expressing all nuclear receptors involved in regulation of expression levels of various CYP enzymes. Fresh solutions of test compounds and controls were diluted in assay media and added every 24 hours for two consecutive days, with a final DMSO concentration of 0.1%. At the end of the incubation, the integrity of cell monolayers, cell density and viability were evaluated to assess cytotoxicity effects. […] It was then used in reverse transcription polymerase chain reactions (RT-PCR) to quantify the amount of specific mRNA species encoding human CYP3A4, CYP2B6, and CYP1A2 genes.
The induction potential of test compounds and controls was compared to known CYP2B6 inducer Phenobarbital (1000 μM). The results of this assay are expressed as fold induction. Fold induction was calculated as a ratio of mRNA level in cells treated with test compound over that in cells treated with DMSO (solvent control) alone, the basal mRNA level, and thus represents the induction potential of the test compound. […]

[3] = Beagle, plasma, Dog, IV 1 mg/kg

Cn1nc(NS(C)(=O)=O)c2c(Cl)ccc(-n3c([C@H](Cc4cc(F)cc(F)c4)NC(=O)Cn4nc(C(F)F)c5c4C(F)(F)[C@@H]4C[C@H]54)nc4nc(OCCC(C)(F)F)ccc4c3=O)c21 (atropisomer, axis not shown; (P)) [Example 1, N—((S)-1-((3P)-3-(4-chloro-1-methyl-3-(methylsulfonamido)-1H-indazol-7-yl)-7-(3,3-difluorobutoxy)-4-oxo-3,4-dihydropyrido[2,3-d]pyrimidin-2-yl)-2-(3,5-difluorophenyl)ethyl)-2-((3bS,4aR)-3-(difluoromethyl)-5,5-difluoro-3b,4,4a,5-tetrahydro-1H-cyclopropa[3,4]cyclopenta[1,2-c]pyrazol-1-yl)acetamide] showed a clearance [1, 3] of 1.16 mL/min/kg, a half-life [1, 3] of 12.4 h and a Vd ([1]; Beagle, plasma, Dog, IV 1 mg/kg, read-out: Vss) of 0.88 L/kg. The bioavailability ([1]; Beagle, plasma, Dog, oral gavage 5 mg/kg solution vs IV 1 mg/kg) was 34.6%, the “half-life in circulation higher than Example 60.2” value ([1]; dog) was “five-fold” and the “clearance improved relative to Example 60.2” value ([1]; dog, IV) was “seven-fold”. The “cytotoxicity in CYP induction assay” value [2] was “No cytotoxicity was observed”.
